Laboratory results from patent US20090111810A1, “SUBSTITUTED PYRIMIDINE-5-CARBOXAMIDE AND 5-CARBOXYLIC ESTER KINASE INHIBITORS” (priority 2007, published 2009).

Columns and labels:
A375 malignant melanoma = test: Inhibition of in vitro cell proliferation (14C-thymidine incorporation), A375; format: cell-based; conditions: Homo sapiens, A-375, A375 cells
Method: (§1) The ability of a test compound to inhibit the proliferation of cell growth was determined by measuring incorporation of ^14C-labelled thymidine into newly synthesized DNA within the cells. This method was used on American Type Culture Collection (ATCC, Virginia) cell lines derived from carcinomas originating from several tissues such as HeLa cervical adenocarcinoma (ATCC Cat. #CCL-2), HCT-116 colon carcinoma (ATCC Cat. #CCL-247), and A375 malignant melanoma (ATCC Cat. #CRL-1619).
(§2) The carcinoma cells are trypsinized and counted. The cells (3000-8000 count) are added to each well of a 96-well CytoStar tissue culture treated scintillating microplate (Amersham #RPNQ0160) in complete medium (100 μL) and the plate is then incubated in complete medium for 24 hrs at 37° C. in an inert atmosphere containing 5% CO2.
(§3) Test compound (1 μL) in 100% DMSO is added to the plate test-wells with DMSO only added to control-wells. The plate is incubated in complete medium for a second 24 hr period at 37° C. in an atmosphere containing 5% CO2.
(§4) An aliquot of a solution of Methyl ^14C-thymidine (56 mC/mmol) (NEN #NEC568 or Amersham #CFA532) in complete medium (20 uL to provide 0.2 μCi/well) is then added to each well and the plate is incubated for a third 24 hr period at 37° C. in an atmosphere containing 5% CO2.
(§5) The plate contents are then discarded, the plate is washed twice with PBS (200 μL) and then PBS (200 μL) is added to each well. The plate is sealed and the degree of methyl ^14C-thymidine incorporation is quantified on a Packard Top Count.

HCT-116 colon carcinoma = test: Inhibition of in vitro cell proliferation (14C-thymidine incorporation), HCT116; format: cell-based; conditions: Homo sapiens, HCT116 cells
Method: as §1, §2, §3, §4, §5

[1] = target: T1, HER-2 kinase (GST-HIS6-Thrombin fusion, amino acids 679 to 1255 of HER-2) (Homo sapiens, UniProt P04626); test: HER-2 Kinase Assay; format: biochemical; conditions: for inhibition at 100 µM: test concentration of 100 μM, read-out: HER2 % inhibition; for IC50: read-out: HER2 IC50
T1 construct: HIS6-Thrombin site (N); purchased Proqinase (Freiburg, Germany)
T1 sequence (P04626 679-1255): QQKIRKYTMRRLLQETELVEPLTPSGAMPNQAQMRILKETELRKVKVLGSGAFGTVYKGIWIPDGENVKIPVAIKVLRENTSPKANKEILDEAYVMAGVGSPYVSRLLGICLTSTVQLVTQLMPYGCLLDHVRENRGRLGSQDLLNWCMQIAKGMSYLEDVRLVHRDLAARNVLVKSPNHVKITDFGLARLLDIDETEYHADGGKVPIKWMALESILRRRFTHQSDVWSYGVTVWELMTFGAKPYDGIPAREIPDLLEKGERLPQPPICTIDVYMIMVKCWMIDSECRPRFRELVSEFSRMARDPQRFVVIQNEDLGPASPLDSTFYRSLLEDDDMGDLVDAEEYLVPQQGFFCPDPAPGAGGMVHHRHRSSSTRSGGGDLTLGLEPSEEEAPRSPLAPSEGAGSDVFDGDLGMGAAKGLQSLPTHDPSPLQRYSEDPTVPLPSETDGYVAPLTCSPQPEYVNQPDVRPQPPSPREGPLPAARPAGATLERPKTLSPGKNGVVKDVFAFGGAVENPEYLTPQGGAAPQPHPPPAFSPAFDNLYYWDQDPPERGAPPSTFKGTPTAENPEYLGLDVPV
Method: The HER-2 kinase used was purified at Proqinase (Freiburg, Germany) from a construct that consisted of a fusion of GST (Glutathione-S-Transferase), HIS6-Thrombin and the nucleotides encoding amino acids 679 to 1255 of HER-2 (Accession Number M11730).
A mixture of a 10× kinase reaction buffer (600 mM Hepes at pH 7.5, 30 mM Magnesium Chloride, 0.03 mM Sodium Vanadate and 500 μg/mL PEG 20,000), DTT (1.2 mM final from a 10 mM stock), ATP (1 μM from a 10 mM stock), biotinylated polyGluTyr (1.5 ng/μL final from stock of 1 μg/μL) prepared by Upstate Biotechnologies, Lake Placid, N.Y.), Manganese Chloride (3 mM final from a 1 M stock), γ-^33P-ATP (10 μCi/μL stock) and water (70 μL/well) was added to each well of a Streptavidin Flashplate (Cat. # SMP103, NEN, Boston, Mass.).
Test compound stock (1 μL) was added to the appropriate wells. Diluted GSTHER2 kinase (6.7 ng/μL diluted into 50 mM Tris-HCl at pH 8.0 and 0.1% bovine serum albumin) (30 μL) was added (total volume of 200 ng/well) to initiate the reactions.
The reaction plates were incubated at 30° C. for 1 hr. The reaction was terminated by aspirating the reaction mixture from the plate wells and washing the wells three times with a 1× PBS stop buffer (300 μL) and 100 mM EDTA. After the final wash, the same stop buffer (200 μL) was again added to the wells. The plates were then sealed and read on the TopCount scintillation counter.
Test compounds were assayed in triplicate at 8 concentrations at one-log dilutions starting at 100 μM. A maximum and minimum signal for the assay was determined on each plate. The percent inhibition of a test compound was calculated according to the formula: […]
(§6) For a series of test concentrations, the IC50 was derived by graphing percent inhibition against the log of the concentrations tested for a given compound.

[2] = tested on: HeLa cervical adenocarcinoma; test: Inhibition of in vitro cell proliferation (14C-thymidine incorporation), HeLa; format: cell-based; conditions: Homo sapiens, HeLa cells
Method: as §1, §2, §3, §4, §5

[3] = target: T2, EGFR kinase (GST fusion of intracellular portion of EGFR, NM_005228) (Homo sapiens, UniProt P00533); test: EGFR Kinase Assay; format: biochemical; conditions: for inhibition at 2 µM: test concentration of 2 μM
T2 construct: The intracellular portion of EGFR started at nucleotide 2189 (corresponding to amino acid 667) and ended at the termination codon; made in house; host or cells: Sf9 insect cells (baculovirus)
T2 sequence (P00533 669-1210 limits assumed): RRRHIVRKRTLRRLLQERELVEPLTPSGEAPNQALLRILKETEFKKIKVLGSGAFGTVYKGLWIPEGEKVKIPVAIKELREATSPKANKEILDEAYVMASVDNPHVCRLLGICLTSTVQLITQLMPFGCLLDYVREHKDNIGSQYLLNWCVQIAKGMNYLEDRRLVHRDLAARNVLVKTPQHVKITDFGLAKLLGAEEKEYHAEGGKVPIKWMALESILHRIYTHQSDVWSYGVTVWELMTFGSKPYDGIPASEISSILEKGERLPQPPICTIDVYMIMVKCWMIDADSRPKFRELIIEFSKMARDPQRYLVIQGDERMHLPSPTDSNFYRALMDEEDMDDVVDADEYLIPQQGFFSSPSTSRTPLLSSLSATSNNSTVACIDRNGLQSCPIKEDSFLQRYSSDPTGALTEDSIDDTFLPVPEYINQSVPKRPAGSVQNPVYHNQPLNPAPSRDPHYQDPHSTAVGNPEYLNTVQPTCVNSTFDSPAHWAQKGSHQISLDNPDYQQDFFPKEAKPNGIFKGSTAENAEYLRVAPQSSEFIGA
Description: The portion was PCR amplified with primers that added the lambda attB sequences to each end, recombined into an entry vector, then into a (GST destination vector (as described in Gateway Technologies Manual by Invitrogen Corporation, Carlsbad, Calif.).
The destination vector was recombined in the DH10BAC strain of bacteria to produce a bacmid. The bacmid was transfected into Sf 9 cells and the supernatant containing the baculovirus was collected. The GSTEGFR protein was purified using large cultures of Sf 9 cells infected with stock virus. After an appropriate period of time, the cells were collected and lysed. The GSTEGFR was then purified from the lysate on Glutathione-Sepharose columns (as described by Amersham Biosciences, Buckinghamshire, United Kingdom).
The free biotin was separated from the biotinylated polyGluTyr on a gel filtration column.
A mixture of a 10× kinase buffer (500 mM Tris at pH 8.0, 100 mM Magnesium Chloride and 1 mM Sodium Vanadate), DTT (1 mM final from 500 mM stock), ATP (5 μM final from […]), biotinylated polyGluTyr (10 μg/μL stock), γ-^33P ATP (10 μCi/μL stock) and water was added to each well (90 μL/well) of a Streptavidin Flashplate (Perkin Elmer, Wellesley, Mass.).
Test compound in 100% DMSO (2 μL) was added to the appropriate wells. Diluted GSTEGFR (1:300 dilution in 50 mM Tris at pH 8.0 and 0.1% bovine serum albumin) (10 μL) was added to the wells to initiate the reactions.
The plates were incubated at 30° C. for 1 hr with shaking, The reacted contents were removed and the plates were sequentially washed three times with a 1×PBS stop buffer (300 μL without Magnesium and Calcium) and 100 mM EDTA. After the final wash, the same stop buffer (200 μL) was added to the wells. The plates were then sealed and read on the TopCount scintillation counter.
Test compounds were assayed in triplicate at 16 concentrations at half-log dilutions starting at 200 μM. A maximum and minimum signal for the assay was determined on each plate. The percent inhibition of a test compound was calculated according to the formula
as §6

SMILES	IC50 (A375 malignant melanoma)	IC50 (HCT-116 colon carcinoma)	inhibition at 100 µM [1]	IC50 [2]	inhibition at 2 µM [3]	IC50 [1]	IC50 [3]
Nc1ncnc(Nc2ccc(OCc3ccccc3)c(Cl)c2)c1C(=O)Nc1ccccc1 [Cpd 10, 4-amino-6-(4-benzyloxy-3-chloro-phenylamino)-pyrimidine-5-carboxylic acid phenylamide]	> 100 µM	> 100 µM	12%	> 100 µM			
COc1ccc(CCNC(=O)c2c(N)ncnc2Nc2ccc(OCc3ccccc3)c(Cl)c2)cc1 [Cpd 9, 4-amino-6-(4-benzyloxy-3-chloro-phenylamino)-pyrimidine-5-carboxylic acid [2-(4-methoxy-phenyl)-ethyl]-amide]	> 100 µM	> 100 µM	4%	> 100 µM	28%		
COc1ccc(NC(=O)c2c(N)ncnc2Nc2ccc(OCc3ccccc3)c(Cl)c2)cc1 [Cpd 11, 4-amino-6-(4-benzyloxy-3-chloro-phenylamino)-pyrimidine-5-carboxylic acid (4-methoxy-phenyl)-amide]	> 100 µM	> 100 µM	0%	> 100 µM	36%		
Nc1ncnc(Nc2ccc(OCc3ccccc3)c(Cl)c2)c1C(=O)OCCN1CCOCC1 [Cpd 3, 4-amino-6-(4-benzyloxy-3-chloro-phenylamino)-pyrimidine-5-carboxylic acid 2-morpholin-4-yl-ethyl ester]	5.1 µM			> 10 µM		1.38 µM	
COCCNC(=O)c1c(N)ncnc1Nc1ccc(OCc2ccccc2)c(Cl)c1 [Cpd 6, 4-amino-6-(4-benzyloxy-3-chloro-phenylamino)-pyrimidine-5-carboxylic acid (2-methoxy-ethyl)-amide]	> 100 µM	> 100 µM	33%	> 100 µM	37%		
Nc1ncnc(Nc2ccc(OCc3ccccc3)c(Cl)c2)c1C=O [Cpd 14, 4-amino-6-(4-benzyloxy-3-chloro-phenylamino)-pyrimidine-5-carboxaldehyde]			63%				
Nc1ncnc(Nc2ccc(OCc3ccccc3)c(Cl)c2)c1C(=O)NNC(=O)CCN1CCOCC1 [Cpd 13, 4-amino-6-(4-benzyloxy-3-chloro-phenylamino)-pyrimidine-5-carboxylic acid N′-(3-morpholin-4-yl-propionyl)-hydrazide]	> 100 µM	> 100 µM		> 100 µM		5.7 µM	0.62 µM

Further lines, results first:

IC50 (A375 malignant melanoma)	IC50 (HCT-116 colon carcinoma)	inhibition at 100 µM [1]	IC50 [2]	inhibition at 2 µM [3]	IC50 [1]	IC50 [3]	SMILES
1 µM	3 µM	92%	1.9 µM				COC(=O)c1c(N)ncnc1Nc1ccc(OCc2ccccc2)c(Cl)c1 [Cpd 1, 4-amino-6-(4-benzyloxy-3-chloro-phenylamino)-pyrimidine-5-carboxylic acid methyl ester]
> 1 µM	> 10 µM		34 µM	42%	10 µM		Nc1ncnc(Nc2ccc(OCc3ccccc3)c(Cl)c2)c1C(=O)NCCN1CCCCC1 [Cpd 7, 4-amino-6-(4-benzyloxy-3-chloro-phenylamino)-pyrimidine-5-carboxylic acid (2-piperidin-1-yl-ethyl)-amide]
> 10 µM	> 10 µM	39%	> 10 µM	36%			CCN(CC)C(=O)c1c(N)ncnc1Nc1ccc(OCc2ccccc2)c(Cl)c1 [Cpd 5, 4-amino-6-(4-benzyloxy-3-chloro-phenylamino)-pyrimidine-5-carboxylic acid diethylamide]
> 10 µM	> 10 µM	21%	> 10 µM	34%			Nc1ncnc(Nc2ccc(OCc3ccccc3)c(Cl)c2)c1C(=O)OCc1cccc(F)c1 [Cpd 4, 4-amino-6-(4-benzyloxy-3-chloro-phenylamino)-pyrimidine-5-carboxylic acid 3-fluoro-benzyl ester]
> 10 µM	> 10 µM	82%	> 10 µM	35%			Nc1ncnc(Nc2ccc(OCc3ccccc3)c(Cl)c2)c1C(=O)NCCN1CCOCC1 [Cpd 8, 4-amino-6-(4-benzyloxy-3-chloro-phenylamino)-pyrimidine-5-carboxylic acid (2-morpholin-4-yl-ethyl)-amide]
> 10 µM	> 10 µM		> 10 µM		0.78 µM		Nc1ncnc(Nc2ccc(OCc3ccccc3)c(Cl)c2)c1C(=O)O [Cpd 2, 4-amino-6-(4-benzyloxy-3-chloro-phenylamino)-pyrimidine-5-carboxylic acid]
1.7 µM	3.4 µM		3 µM		0.15 µM		NNC(=O)c1c(N)ncnc1Nc1ccc(OCc2ccccc2)c(Cl)c1 [Cpd 12, 4-amino-6-(4-benzyloxy-3-chloro-phenylamino)-pyrimidine-5-carboxylic acid hydrazide]
